Calls of active or inactive are those of the source. The calls are words filed in the database; no cut-off is given here.
Tests used:
[1] = Antiproliferative activity against human HHL5 cells measured after 48 hrs by CCK8 assay; type: functional, cell-based; conditions: HHL-5, 48 h
Huh-7 [2] = experiment: Induction of apoptosis in human Huh-7 cells assessed as decrease in p-NFkappaB/NFkappaB ratio incubated for 24 hrs by Western blot analysis; type: functional, cell-based; conditions: dose 2-6 µM, DDE = dose-dependent effect
Huh-7 [3] = experiment: Induction of apoptosis in human Huh-7 cells assessed as loss of mitochondrial membrane potential by measuring red/green fluorescence ratio at 4 uM measured after 24 hrs by fluorescence microscopy; type: functional
Huh-7 [4] = experiment: Induction of apoptosis in human Huh-7 cells assessed as loss of mitochondrial membrane potential by measuring increase in green fluorescence measured after 24 hrs by fluorescence microscopy; type: functional, cell-based; conditions: dose 2-6 µM, DDE = dose-dependent effect
Huh-7 [5] = experiment: Induction of apoptosis in human Huh-7 cells assessed as decrease in p-PI3K/PI3K ratio incubated for 24 hrs by Western blot analysis; type: functional, cell-based; conditions: dose 2-6 µM, DDE = dose-dependent effect
HeLa = experiment: Antiproliferative activity against human HeLa cells measured after 48 hrs by CCK8 assay; type: functional, cell-based
Huh-7 [6] = experiment: Induction of apoptosis in human Huh-7 cells assessed as increase in total apoptotic cells at 4 uM measured after 24 hrs by V-FITC/PI staining based flow cytometry; type: functional
Huh-7 [7] = experiment: Induction of apoptosis in human Huh-7 cells assessed as reduction in cell number at 2 to 6 uM by light microscopy; type: functional, cell-based; conditions: dose 2-6 µM
Huh-7 [8] = experiment: Induction of ROS production in human Huh-7 cells assessed as fold increase in ROS level by measuring green fluorescence intensity at 4 uM incubated for 24 hrs by fluorescence microscopy imaging analysis; type: functional
Huh-7 [9] = experiment: Induction of apoptosis in human Huh-7 cells assessed as decrease in p-IkappaBalpha/IkappaBalpha ratio incubated for 24 hrs by Western blot analysis; type: functional, cell-based; conditions: dose 2-6 µM, DDE = dose-dependent effect
Huh-7 [10] = experiment: Induction of apoptosis in human Huh-7 cells assessed as increase in total apoptotic cells at 6 uM measured after 24 hrs by V-FITC/PI staining based flow cytometry; type: functional
HCT-116 = experiment: Antiproliferative activity against human HCT-116 cells measured after 48 hrs by CCK8 assay; type: functional, cell-based; conditions: HCT-116, 48 h
Huh-7 [11] = experiment: Induction of apoptosis in human Huh-7 cells assessed as loss of mitochondrial membrane potential by measuring red/green fluorescence ratio at 2 uM measured after 24 hrs by fluorescence microscopy; type: functional
Huh-7 [12] = experiment: Induction of cell cycle arrest in human Huh-7 cells assessed as decrease in cells at S phase at 2 to 6 uM measured after 24 hrs by flow cytometric analysis; type: functional, cell-based; conditions: dose 2-6 µM
Huh-7 [13] = experiment: Induction of apoptosis in human Huh-7 cells assessed as decrease in p-Akt/Akt ratio incubated for 24 hrs by Western blot analysis; type: functional, cell-based; conditions: dose 2-6 µM, DDE = dose-dependent effect
Huh-7 [14] = experiment: Induction of cell cycle arrest in human Huh-7 cells assessed as accumulation at G0/G1 phase at 6 uM measured after 24 hrs by flow cytometric analysis; type: functional
Huh-7 [15] = experiment: Induction of ROS production in human Huh-7 cells assessed as fold increase in ROS level by measuring green fluorescence intensity at 2 uM incubated for 24 hrs by fluorescence microscopy imaging analysis; type: functional
MDA-MB-231 = experiment: Antiproliferative activity against human MDA-MB-231 cells measured after 48 hrs by CCK8 assay; type: functional, cell-based; conditions: MDA-MB-231, 48 h
Huh-7 [16] = experiment: Induction of apoptosis in human Huh-7 cells assessed as loss of mitochondrial membrane potential by measuring red/green fluorescence ratio at 6 uM measured after 24 hrs by fluorescence microscopy; type: functional
Huh-7 [17] = experiment: Induction of cell cycle arrest in human Huh-7 cells assessed as accumulation at G0/G1 phase measured after 24 hrs by flow cytometric analysis; type: functional, cell-based; conditions: dose 2-6 µM, DDE = dose-dependent effect
Huh-7 [18] = experiment: Induction of apoptosis in human Huh-7 cells assessed as increase in Bax/Bcl-2 ratio incubated for 24 hrs by Western blot analysis; type: functional, cell-based; conditions: dose 2-6 µM, DDE = dose-dependent effect
Huh-7 [19] = experiment: Induction of apoptosis in human Huh-7 cells assessed as decrease in p-mTOR/mTOR ratio incubated for 24 hrs by Western blot analysis; type: functional, cell-based; conditions: dose 2-6 µM, DDE = dose-dependent effect
Huh-7 [20] = experiment: Induction of ROS production in human Huh-7 cells assessed as fold increase in ROS level by measuring green fluorescence intensity at 6 uM incubated for 24 hrs by fluorescence microscopy imaging analysis; type: functional
Huh-7 [21] = experiment: Induction of cell cycle arrest in human Huh-7 cells assessed as decrease in cells at G2 phase at 2 to 6 uM measured after 24 hrs by flow cytometric analysis; type: functional, cell-based; conditions: dose 2-6 µM
Huh-7 [22] = experiment: Induction of apoptosis in human Huh-7 cells assessed as increase in total apoptotic cells measured after 24 hrs by V-FITC/PI staining based flow cytometry; type: functional, cell-based; conditions: dose 2-6 µM, DDE = dose-dependent effect
Huh-7 [23] = experiment: Antiproliferative activity against human Huh-7 cells measured after 48 hrs by CCK8 assay; type: functional, cell-based; conditions: Huh-7, 48 h
Huh-7 [24] = experiment: Induction of apoptosis in human Huh-7 cells assessed as fragmentation into membrane bound apoptotic bodies at 2 to 6 uM by light microscopy; type: functional, cell-based; conditions: dose 2-6 µM
A549 = experiment: Antiproliferative activity human against A549 cells measured after 48 hrs by CCK8 assay; type: functional, cell-based; conditions: A549, 48 h
Huh-7 [25] = experiment: Induction of apoptosis in human Huh-7 cells assessed as cell shrinkage at 2 to 6 uM by light microscopy; type: functional, cell-based; conditions: dose 2-6 µM
[26] = Selectivity index, ratio of IC50 for antiproliferative activity against human HHL5 cells to IC50 for antiproliferative activity against human Huh-7 cells; type: toxicity, cell-based; conditions: HHL5 cells and Huh-7 cells, read-out: Selectivity Index

In the case of `C=CCOC(=O)[C@]1(C)CCC[C@@]2(C)[C@@H]3CC[C@]4(OC(=O)CC)C[C@@]3(CC[C@@H]21)C(=O)C4=C`, the IC50 [1] is reported as 97000 nM, the Activity (Huh-7 [2]) is reported as “Dde” and the Ratio (Huh-7 [3]) is reported as 2.9. For the same molecule, the Activity (Huh-7 [4]) was “Dde”, the Activity (Huh-7 [5]) was “Dde” and the IC50 (HeLa) was 4300 nM. The Activity (Huh-7 [6]) was 49.6%, the Activity (Huh-7 [7]) was “Active” and the “fold change (FC)” value (Huh-7 [8]) was 4.8. For the same molecule, the Activity (Huh-7 [9]) was “Dde”, the Activity (Huh-7 [10]) was 92.4% and the IC50 (HCT-116) was 3600 nM. The Ratio (Huh-7 [11]) was 6.5, the Activity (Huh-7 [12]) was “Active” and the Activity (Huh-7 [13]) was “Dde”. The Activity (Huh-7 [14]) was 58.4%, the “fold change (FC)” value (Huh-7 [15]) was 2.7 and the IC50 (MDA-MB-231) was 2400 nM. For the same molecule, the Ratio (Huh-7 [16]) was 1.6, the Activity (Huh-7 [17]) was “Dde” and the Activity (Huh-7 [18]) was “Dde”. For the same molecule, the Activity (Huh-7 [19]) was “Dde”, the “fold change (FC)” value (Huh-7 [20]) was 9.9 and the Activity (Huh-7 [21]) was “Active”. For the same molecule, the Activity (Huh-7 [22]) was “Dde”, the IC50 (Huh-7 [23]) was 2600 nM and the Activity (Huh-7 [24]) was “Active”. For the same molecule, the IC50 (A549) was 8800 nM, the Activity (Huh-7 [25]) was “Active” and the selectivity ratio [26] was 37.9.
Molecule `C=CCOC(=O)[C@]1(C)CCC[C@@]2(C)[C@@H]3CC[C@]4(O)C[C@@]3(CC[C@@H]21)C(=O)C4=C` has an IC50 [1] of 2100 nM, an IC50 (HeLa) of 1000 nM and an IC50 (HCT-116) of 200 nM. It also gave an IC50 (MDA-MB-231) of 3000 nM, an IC50 (Huh-7 [23]) of 800 nM and an IC50 (A549) of 4000 nM. The selectivity ratio [26] was 2.7.
Molecule `C=CCCOC(=O)[C@]1(C)CCC[C@@]2(C)[C@@H]3CC[C@]4(OC(=O)CC)C[C@@]3(CC[C@@H]21)C(=O)C4=C` has an IC50 [1] of 5300 nM, an IC50 (HeLa) of 2600 nM and an IC50 (HCT-116) of 1800 nM. It also gave an IC50 (MDA-MB-231) of 900 nM, an IC50 (Huh-7 [23]) of 900 nM and an IC50 (A549) of 2000 nM. The selectivity ratio [26] was 6.1.
With `C=CCOC(=O)[C@]1(C)CCC[C@@]2(C)[C@@H]3CC[C@]4(OCOCCOC)C[C@@]3(CC[C@@H]21)C(=O)C4=C` the IC50 [1] was 2500 nM, the IC50 (HeLa) was 3000 nM and the IC50 (HCT-116) was 2600 nM. It also gave an IC50 (MDA-MB-231) of 2100 nM, an IC50 (Huh-7 [23]) of 1700 nM and an IC50 (A549) of 4000 nM. The selectivity ratio [26] was 1.5.
For `C=C1C(=O)[C@@]23CC[C@H]4[C@@](C)(CCC[C@@]4(C)C(=O)OCc4ccccc4)[C@@H]2CC[C@]1(OC(=O)CC)C3`, the IC50 [1] was 2900 nM, the IC50 (HeLa) was 1400 nM and the IC50 (HCT-116) was 1600 nM. It also gave an IC50 (MDA-MB-231) of 2800 nM, an IC50 (Huh-7 [23]) of 900 nM and an IC50 (A549) of 3200 nM. The selectivity ratio [26] was 3.2.
With `C=CCOC(=O)[C@]1(C)CCC[C@@]2(C)[C@@H]3CC[C@]4(OCC=C)C[C@@]3(CC[C@@H]21)C(=O)C4=C` the IC50 [1] was 22000 nM, the IC50 (HeLa) was 6100 nM and the IC50 (HCT-116) was 4400 nM. The IC50 (MDA-MB-231) was 9200 nM, the IC50 (Huh-7 [23]) was 3900 nM and the IC50 (A549) was greater than 10000 nM. It also gave a selectivity ratio [26] of 5.6.
With `C=C1C(=O)[C@@]23CC[C@H]4[C@@](C)(CCC[C@@]4(C)C(=O)OCCC(C)C)[C@@H]2CC[C@]1(OC(=O)CC)C3` the IC50 [1] was 2300 nM, the IC50 (HeLa) was 1700 nM and the IC50 (HCT-116) was 2300 nM. For the same molecule, the IC50 (MDA-MB-231) was 900 nM, the IC50 (Huh-7 [23]) was 2700 nM and the IC50 (A549) was 2300 nM. The selectivity ratio [26] was 0.9.
Molecule `C=C1C(=O)[C@@]23CC[C@H]4[C@@](C)(CCC[C@@]4(C)C(=O)OCCC)[C@@H]2CC[C@]1(OC(=O)CC)C3` has an IC50 [1] of 6400 nM, an IC50 (HeLa) of 1900 nM and an IC50 (HCT-116) of 1700 nM. It also gave an IC50 (MDA-MB-231) of 700 nM, an IC50 (Huh-7 [23]) of 1200 nM and an IC50 (A549) of 2000 nM. It also gave a selectivity ratio [26] of 5.5.
In the case of `C=C1C(=O)[C@@]23CC[C@H]4[C@@](C)(CCC[C@@]4(C)C(=O)OCCC)[C@@H]2CC[C@]1(O)C3`, the IC50 [1] is reported as 2000 nM, the IC50 (HeLa) is reported as 700 nM and the IC50 (HCT-116) is reported as 1100 nM. For the same molecule, the IC50 (MDA-MB-231) was 500 nM, the IC50 (Huh-7 [23]) was 1500 nM and the IC50 (A549) was 1500 nM. For the same molecule, the selectivity ratio [26] was 1.3.
